Test results taken from PubChem BioAssay AID328 (DTP/NCI, 2004).
“And” between values parts separate entries of the source, which are not always exact repeats. Identical values can stand only once. Toxic doses and inconclusive results are not listed. The calls were made as follows: active = survival T/C of 150% or more; inactive = T/C below 125% in these data. Residues, ends and D or L forms follow the SMILES beside them. *: point of attachment. Cbz = O=C(OCc1ccccc1)*; Bn = c1ccc(C*)cc1

Test system: BDF1 mice, P388 leukemia ip, median survival T/C
Test: NCI In Vivo Anticancer Drug Screen. Data for tumor model P388 Leukemia (intraperitoneal) in B6D2F1 (BDF1) mice
Conditions: endpoint: median survival time, higher = longer survival
Procedure, shortened: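 Read-out is survival of treated animals expressed relative to the vehicle group, as a T/C ratio.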

[1] = dose: 12.5 mg/kg/injection, schedule: Q01DX009 (ip), vehicle: saline with Tween-80
[2] = dose: 25.0 mg/kg/injection, schedule: Q01DX009 (ip), vehicle: saline with Tween-80
[3] = dose: 50.0 mg/kg/injection, schedule: Q01DX009 (ip), vehicle: saline
[4] = dose: 50.0 mg/kg/injection, schedule: Q01DX009 (ip), vehicle: saline with Tween-80
[5] = dose: 100.0 mg/kg/injection, schedule: Q01DX009 (ip), vehicle: saline with Tween-80
[6] = dose: 25.0 mg/kg/injection, schedule: Q04DX003 (ip), vehicle: saline with Tween-80
[7] = dose: 50.0 mg/kg/injection, schedule: Q04DX003 (ip), vehicle: saline with Tween-80
[8] = dose: 200.0 mg/kg/injection, schedule: Q01DX009 (ip), vehicle: saline with Tween-80
[9] = dose: 100.0 mg/kg/injection, schedule: Q04DX003 (ip), vehicle: Klucel (hydroxypropylcellulose) (HPC)
[10] = dose: 200.0 mg/kg/injection, schedule: Q04DX003 (ip), vehicle: Klucel (hydroxypropylcellulose) (HPC)
[11] = dose: 400.0 mg/kg/injection, schedule: Q04DX003 (ip), vehicle: Klucel (hydroxypropylcellulose) (HPC)
[12] = dose: 25.0 mg/kg/injection, schedule: Q01DX009 (ip), vehicle: saline
[13] = dose: 100.0 mg/kg/injection, schedule: Q04DX003 (ip), vehicle: saline with Tween-80

Measured: T/C

Cc1ccc2c(c1)=N/C(=N/c1[nH]c(O)c3ccccc13)N=2
inactive: dose: 6.25 mg/kg/injection, schedule: Q01DX009 (ip), vehicle: saline with Tween-80 108 % of control | [1] 99 % of control | [2] 108 % of control

N/C(=N/N=C/c1ccncc1)N[N+](=O)[O-]
inactive: [3] 90 % of control

CCN1c2ccccc2CC(CCN(C(C)C)C(C)C)(C(N)=O)c2ccccc21 (stereo unspecified)
inactive: dose: 100.0 mg/kg/injection, schedule: Q04DX002 (ip), vehicle: saline with Tween-80 108 % of control

Clc1ccc(CNc2ncnc3[nH]ncc23)cc1Cl
inactive: [1] 100 % of control | [2] 100 % of control | [4] 100 % of control

O=c1oc2ccccc2cc1-c1csc(/C=N/N2CCOCC2)n1
inactive: [4] 113 % of control | [5] 104 % of control

COc1cc(C=Nc2cc(Cl)c(O)c(Cl)c2)ccc1N(CCCl)CCCl
inactive: dose: 12.5 mg/kg/injection, schedule: Q04DX003 (ip), vehicle: saline with Tween-80 111 % of control | [7] 100 % of control
active: dose: 5.0 mg/kg/injection, schedule: Q04DX003 (ip), vehicle: saline with Tween-80 181 % of control | dose: 8.0 mg/kg/injection, schedule: Q04DX003 (ip), vehicle: saline with Tween-80 222 % of control | dose: 12.0 mg/kg/injection, schedule: Q04DX003 (ip), vehicle: saline with Tween-80 231 % of control and 211 % of control | dose: 17.0 mg/kg/injection, schedule: Q04DX003 (ip), vehicle: saline with Tween-80 196 % of control | [6] 215 % of control | dose: 37.5 mg/kg/injection, schedule: Q04DX003 (ip), vehicle: saline with Tween-80 230 % of control

Cc1ccc(-n2c(O)c(C=N)c(=O)[nH]c2=O)cc1
inactive: [4] 86 % of control | [5] 86 % of control | [8] 113 % of control

C1CN1P1(N2CC2)=NP(N2CC2)(N2CC2)=NP(N2CC2)(N2CC2)=N1
inactive: dose: 0.61 mg/kg/injection, schedule: Q01DX009 (ip), vehicle: saline 109 % of control | dose: 0.92 mg/kg/injection, schedule: Q01DX009 (ip), vehicle: saline 118 % of control
active: dose: 2.1 mg/kg/injection, schedule: Q01DX009 (ip), vehicle: saline 154 % of control | dose: 3.3 mg/kg/injection, schedule: Q01DX009 (ip), vehicle: saline 180 % of control and 203 % of control and 204 % of control | dose: 5.0 mg/kg/injection, schedule: Q01DX009 (ip), vehicle: saline 190 % of control and 218 % of control | dose: 7.5 mg/kg/injection, schedule: Q01DX009 (ip), vehicle: saline 265 % of control and 272 % of control and 153 % of control

CC(=O)NC1=C(N2CC2)C(=O)C(NC(C)=O)=C(N2CC2)C1=O
active: dose: 0.12 mg/kg/injection, schedule: Q01DX009 (ip), vehicle: saline 155 % of control | dose: 0.25 mg/kg/injection, schedule: Q01DX009 (ip), vehicle: saline 166 % of control and 195 % of control | dose: 0.5 mg/kg/injection, schedule: Q01DX009 (ip), vehicle: saline 270 % of control and 214 % of control | dose: 1.0 mg/kg/injection, schedule: Q01DX009 (ip), vehicle: saline 285 % of control and 190 % of control
inactive: dose: 2.0 mg/kg/injection, schedule: Q01DX009 (ip), vehicle: saline 109 % of control

CC1(C)Oc2nc(N)nc(N)c2C1c1ccc(Cl)cc1 (stereo unspecified)
inactive: [9] 104 % of control | [10] 100 % of control | [11] 95 % of control

O=C(C=C(C(F)(F)F)C(F)(F)F)c1ccccc1Cl
inactive: dose: 11.0 mg/kg/injection, schedule: Q01DX009 (ip), vehicle: saline with Tween-80 109 % of control | dose: 16.5 mg/kg/injection, schedule: Q01DX009 (ip), vehicle: saline with Tween-80 118 % of control | [2] 118 % of control

CC(C)(C)OC(=O)NC(CCCCNC(=O)OCc1ccccc1)C(=O)NC(CCCCNC(=O)OCc1ccccc1)C(=O)NC(CCCCNC(=O)OCc1ccccc1)C(=O)OCc1ccccc1 (stereo unspecified)
inactive: dose: 50.0 mg/kg/injection, schedule: Q01DX005 (ip), vehicle: saline with Tween-80 86 % of control | dose: 200.0 mg/kg/injection, schedule: Q01DX005 (ip), vehicle: saline with Tween-80 90 % of control

O=C(CC(c1ccccc1)C1CCCN(c2ccccc2)S1(=O)=O)c1ccccc1 (stereo unspecified)
inactive: [4] 109 % of control | [5] 114 % of control | [8] 97 % of control

C=CCOCC1CO1 (stereo unspecified)
inactive: dose: 12.5 mg/kg/injection, schedule: Q01DX009 (ip), vehicle: saline 99 % of control | [12] 106 % of control | [3] 100 % of control | dose: 100.0 mg/kg/injection, schedule: Q01DX009 (ip), vehicle: saline 109 % of control | dose: 200.0 mg/kg/injection, schedule: Q01DX009 (ip), vehicle: saline 117 % of control

O=C(NC(CSCc1ccccc1)C(=O)NC(Cc1ccc(O)cc1)C(=O)O)OCc1ccccc1 (stereo unspecified) (Cbz-Cys(Bn)-Tyr-OH; configuration not given here)
inactive: dose: 100.0 mg/kg/injection, schedule: Q01DX009 (ip), vehicle: gum acacia 95 % of control | dose: 100.0 mg/kg/injection, schedule: Q04DX003 (ip), vehicle: gum acacia 88 % of control | dose: 200.0 mg/kg/injection, schedule: Q01DX009 (ip), vehicle: gum acacia 95 % of control | dose: 200.0 mg/kg/injection, schedule: Q04DX003 (ip), vehicle: gum acacia 107 % of control | dose: 400.0 mg/kg/injection, schedule: Q01DX009 (ip), vehicle: gum acacia 100 % of control | dose: 400.0 mg/kg/injection, schedule: Q04DX003 (ip), vehicle: gum acacia 92 % of control

COc1cc(OC)c(OC)cc1/C=N/Nc1ccc(C(=O)O)cc1
inactive: [13] 105 % of control | dose: 200.0 mg/kg/injection, schedule: Q04DX003 (ip), vehicle: saline with Tween-80 100 % of control | dose: 400.0 mg/kg/injection, schedule: Q04DX003 (ip), vehicle: saline with Tween-80 110 % of control

Cn1c(=O)oc2ccc(Cl)cc21
inactive: [2] 122 % of control | [4] 115 % of control | [8] 91 % of control

Nc1ccccc1C(=O)OCCc1ccccc1
inactive: dose: 100.0 mg/kg/injection, schedule: Q01DX009 (ip), vehicle: Klucel (hydroxypropylcellulose) (HPC) 100 % of control | [9] 95 % of control | [10] 91 % of control | dose: 266.0 mg/kg/injection, schedule: Q01DX009 (ip), vehicle: Klucel (hydroxypropylcellulose) (HPC) 94 % of control | dose: 400.0 mg/kg/injection, schedule: Q01DX009 (ip), vehicle: Klucel (hydroxypropylcellulose) (HPC) 110 % of control | [11] 95 % of control | dose: 600.0 mg/kg/injection, schedule: Q01DX009 (ip), vehicle: Klucel (hydroxypropylcellulose) (HPC) 100 % of control

C[n+]1c(-c2ccccc2)c2cc(N)ccc2c2ccc(N)cc21
active: [6] 171 % of control
inactive: [7] 90 % of control

CCNC(C)(C)C(SS(=O)(=O)O)c1cccs1 (stereo unspecified)
inactive: dose: 100.0 mg/kg/injection, schedule: Q01DX009 (ip), vehicle: water 121 % of control | dose: 100.0 mg/kg/injection, schedule: Q04DX003 (ip), vehicle: water 102 % of control | dose: 200.0 mg/kg/injection, schedule: Q01DX009 (ip), vehicle: water 121 % of control | dose: 200.0 mg/kg/injection, schedule: Q04DX003 (ip), vehicle: water 111 % of control | dose: 400.0 mg/kg/injection, schedule: Q04DX003 (ip), vehicle: water 93 % of control

Cn1ncc2c(N)ncnc21
inactive: dose: 0.75 mg/kg/injection, schedule: Q01DX009 (ip), vehicle: Klucel (hydroxypropylcellulose) (HPC) 100 % of control | dose: 1.5 mg/kg/injection, schedule: Q01DX009 (ip), vehicle: Klucel (hydroxypropylcellulose) (HPC) 100 % of control | dose: 3.0 mg/kg/injection, schedule: Q01DX009 (ip), vehicle: Klucel (hydroxypropylcellulose) (HPC) 109 % of control | dose: 6.0 mg/kg/injection, schedule: Q01DX009 (ip), vehicle: Klucel (hydroxypropylcellulose) (HPC) 122 % of control

O=c1c2ccc(Cl)cc2[nH]c2ccc(Cl)cc12
inactive: [6] 103 % of control | [7] 100 % of control | [13] 99 % of control

COc1cc(/C=N/NC(=O)C[n+]2ccccc2)cc(OC)c1
inactive: [12] 104 % of control | dose: 25.0 mg/kg/injection, schedule: Q04DX003 (ip), vehicle: saline 109 % of control | [3] 100 % of control | dose: 50.0 mg/kg/injection, schedule: Q04DX003 (ip), vehicle: saline 104 % of control | dose: 100.0 mg/kg/injection, schedule: Q04DX003 (ip), vehicle: saline 86 % of control
